Values of other authors as cited in patent publication US20220288013A1, “1,8-CINEOL COATED IMPLANTS” (THE BOARD OF TRUSTEES OF THE LELAND STANFORD JUNIOR …, priority 2019, published 2022).

Tests used:
WNT/β-catenin pathway = settings: permanent HNSCC cell lines
[1] = test system: head and neck squamous cell carcinoma (HNSCC) cell lines; settings: exposure of different cell lines; permanent HNSCC cell lines
Wnt11 = settings: HNSCC cell lines

## CC12CCC(CC1)C(C)(C)O2 [1,8-cineol, 1,3,3-Trimethyl-2-oxabicyclo[2.2.2]octane]
WNT/β-catenin pathway
  activity of the WNT/β-catenin pathway (canonical pathway), especially of Wnt11: decrease the activity of the WNT/β-catenin pathway
[1]
  proliferation: inhibit proliferation
Wnt11
  expression of Wnt11: reduces expression of Wnt11
